# Results published in patent US11878080B2, “Protein capsules” (Cambridge Enterprise Limited, priority 2014, dated 2024).
# Columns and labels:
# [1] = Release of encapsulated small molecules from capsules in fresh buffer (UV absorption of supernatant); format: physicochemical
# Experimental: The release of the encapsulated species from the capsules was then studied. To this effect, the capsules were incubated in fresh buffer for an increasing period of time, removed the gels by centrifugation, and measured the concentration of released small molecules in the supernatant through their UV absorption. The results shown in FIG. 4 (d) reveal marked differences in the rate of release of the small molecules.
# The loaded microgels were washed with 10 mM HCl at intervals of time from 10 min to 14 d. The solutes after each washing were analysed by UV spectroscopy.
# [2] = Release kinetics of insulin, glucagon and lysozyme from protein microgel capsules (washing with DDW pH 7); format: physicochemical; conditions: compared to insulin and lysozyme proteins
# Experimental: The efficiency of microfluidic techniques for protein capsules synthesis was studied by calculating the percentage of protein participating in capsule formation following the fluorescent signal of labelled protein in residue solutions. After the preparation of the microgel capsules was accomplished and the resulting capsules were washed, in order to remove unreacted species, and the concentration of unreacted protein was calculated following UV absorption and fluorescent signal of each protein. In order to study the release kinetics of insulin, glucagon and lysozyme protein microgel shells, the loaded samples were washed with DDW pH=7 within following intervals of time: 10 min., 30 min., 1 h., 3 h., 8 h., 12 h., 24 h., 48 h., 3 d., 7 d. Each washing solution was than analysed by UV spectroscopy and fluorimeter and exact concentration of the released species was detected.
# Finally, whether the aggregation nature of the protein structures influenced the release kinetics of the encapsulated proteins was studied. […] This effect is attributed to the slow aggregation process of glucagon protein in the protein assembly. However, for the multishell structures, the proteins which localise at the core of the microgels tend to dissociate (release) only after the proteins of the outer shell are released. […]
compound,measurement,setting,value
CC1(C)S[C@@H]2[C@H](NC(=O)COc3ccccc3)C(=O)N2[C@H]1C(=O)O [Penicillin V],time to maximum release rate,[1]; release from lysozyme capsules in fresh buffer,one
"glucagon: human glucagon (Gemini Bio-Products), protein assembled into and released from microgel capsules",release rate of protein from capsules,[2],much faster
"Cc1ccc2c(c1)sc(-c1ccc(N(C)C)cc1)[n+]2C.[Cl-] [ThT, Thioflavin T]",extent of release from capsules,[1]; after one week,not fully released
